According to patent US6737383B1, “Herbicidal oxadiazolidines” (priority 1999, dated 2004):

What was measured:
[1] = system: bedstraw; assay: Test B pre/postemergence bedstraw; assay type: in vivo, Galium aparine
In short: (§1)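 Test chemicals in a non-phytotoxic solvent mixture with surfactant were sprayed preemergence onto planted seeds and postemergence onto plants 2 to 18 cm tall (1- to 4-leaf stage). After twelve to sixteen days in a greenhouse, injury was visually rated against untreated controls from 0 (no effect) to 10 (complete control).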

[2] = system: blackgrass; assay: Test B pre/postemergence blackgrass; assay type: in vivo, Alopecurus myosuroides
In short: as §1

[3] = system: surinam grass; assay: Test B pre/postemergence surinam grass; assay type: in vivo, Brachiaria decumbens
In short: as §1

[4] = system: cocklebur; assay: Test B pre/postemergence cocklebur; assay type: in vivo, Xanthium strumarium
In short: as §1

[5] = system: corn; assay: Test B pre/postemergence corn; assay type: in vivo, Zea mays
In short: as §1

[6] = system: crabgrass; assay: Test B pre/postemergence crabgrass; assay type: in vivo, Digitaria sanguinalis
In short: as §1

[7] = system: giant foxtail; assay: Test B pre/postemergence giant foxtail; assay type: in vivo, Setaria faberii
In short: as §1

[8] = system: morningglory; assay: Test B pre/postemergence morningglory; assay type: in vivo, Ipomoea hederacea
In short: as §1

[9] = system: pigweed; assay: Test B pre/postemergence pigweed; assay type: in vivo, Amaranthus retroflexus
In short: as §1

[10] = system: rape; assay: Test B pre/postemergence rape; assay type: in vivo, Brassica napus
In short: as §1

[11] = system: sugar beet; assay: Test B pre/postemergence sugar beet; assay type: in vivo, Beta vulgaris
In short: as §1

[12] = system: wheat; assay: Test B pre/postemergence wheat; assay type: in vivo, Triticum aestivum
In short: as §1

[13] = system: wild oat; assay: Test B pre/postemergence wild oat; assay type: in vivo, Avena fatua
In short: as §1

[14] = system: purple nutsedge; assay: Test B pre/postemergence purple nutsedge; assay type: in vivo, Cyperus rotundus
In short: as §1

[15] = Postemergence, Rate 125 g/ha, scale of 0 to 10 where 0 is no effect and 10 is complete control
[16] = Preemergence, Rate 62 g/ha, scale 0 to 10 (0 no effect, 10 complete control)
[17] = Preemergence, Rate 125 g/ha, 0 is no effect, 10 is complete control
[18] = Preemergence, Rate 250 g/ha, scale 0 to 10, 0 is no effect, 10 is complete control
[19] = Preemergence, Rate 500 g/ha, scale 0 to 10 (0 no effect, 10 complete control)
[20] = Rate 62 g/ha, Postemergence, scale of 0 to 10 where 0 is no effect and 10 is complete control
[21] = Rate 250 g/ha, Postemergence, scale 0 to 10, 0 is no effect, 10 is complete control
[22] = Rate 500 g/ha, Postemergence, scale 0 to 10

## Cc1ccc(N(C(=O)n2oc(=O)n(C(C)C)c2=O)C(C)C)cc1 [Compound 132]
[1]; [15]
  Bedstraw plant response rating: 0
[1]; [16]
  Bedstraw plant response rating: 0
[1]; [17]
  Bedstraw plant response rating (0 to 10 scale): 0
[1]; [18]
  Bedstraw plant response rating: 9
[1]; [19]
  Bedstraw plant response rating: 10
[1]; [20]
  Bedstraw plant response rating: 0
[1]; [21]
  Plant response rating, Bedstraw: 2
[1]; Rate 500 g/ha, Postemergence, scale 0 to 10, 0 no effect, 10 complete control
  Bedstraw plant response rating: 7
[2]; [15]
  Blackgrass plant response rating: 2
[2]; [16]
  Blackgrass plant response rating: 3
[2]; [17]
  Blackgrass plant response rating (0 to 10 scale): 6
[2]; [18]
  Blackgrass plant response rating: 9
[2]; [19]
  Blackgrass plant response rating: 10
[2]; [20]
  Blackgrass plant response rating: 0
[2]; [21]
  Plant response rating, Blackgrass: 8
[2]; [22]
  Blackgrass plant response rating: 9
[3]; [15]
  B. signalgrass plant response rating: 3
[3]; [16]
  B. signalgrass plant response rating: 0
[3]; [17]
  B. signalgrass plant response rating (0 to 10 scale): 3
[3]; [18]
  B. signalgrass plant response rating: 7
[3]; [19]
  B. signalgrass plant response rating: 9
[3]; [20]
  B. signalgrass plant response rating: 0
[3]; [21]
  Plant response rating, B. signalgrass: 4
[3]; Rate 500 g/ha, Postemergence, scale of 0 to 10 where 0 is no effect and 10 is complete control
  B. signalgrass plant response rating: 7
[4]; [15]
  Cocklebur plant response rating: 0
[4]; [16]
  Cocklebur plant response rating: 0
[4]; [17]
  Cocklebur plant response rating (0 to 10 scale): 0
[4]; [19]
  Cocklebur plant response rating: 0
[4]; [20]
  Cocklebur plant response rating: 0
[4]; [21]
  Plant response rating, Cocklebur: 0
[4]; [22]
  Cocklebur plant response rating: 0
[5]; [15]
  Corn plant response rating: 0
[5]; [16]
  Corn plant response rating: 0
[5]; [17]
  Corn plant response rating (0 to 10 scale): 0
[5]; [18]
  Corn plant response rating: 7
[5]; [19]
  Corn plant response rating: 8
[5]; [20]
  Corn plant response rating: 0
[5]; [21]
  Plant response rating, Corn: 4
[5]; [22]
  Corn plant response rating: 6
[6]; [15]
  Crabgrass plant response rating: 7
[6]; [16]
  Crabgrass plant response rating: 7
[6]; [17]
  Crabgrass plant response rating (0 to 10 scale): 7
[6]; [18]
  Crabgrass plant response rating: 9
[6]; [19]
  Crabgrass plant response rating: 9
[6]; [20]
  Crabgrass plant response rating: 5
[6]; [21]
  Plant response rating, Crabgrass: 8
[6]; [22]
  Crabgrass plant response rating: 9
[7]; [15]
  Giant foxtail plant response rating: 9
[7]; [16]
  Giant foxtail plant response rating: 8
[7]; [17]
  Giant foxtail plant response rating (0 to 10 scale): 8
[7]; [18]
  Giant foxtail plant response rating: 9
[7]; [19]
  Giant foxtail plant response rating: 10
[7]; [20]
  Giant foxtail plant response rating: 8
[7]; [21]
  Plant response rating, Giant foxtail: 9
[7]; [22]
  Giant foxtail plant response rating: 9
[8]; [15]
  Morningglory plant response rating: 6
[8]; [16]
  Morningglory plant response rating: 0
[8]; [17]
  Morningglory plant response rating (0 to 10 scale): 0
[8]; [18]
  Morningglory plant response rating: 0
[8]; [19]
  Morningglory plant response rating: 2
[8]; [20]
  Morningglory plant response rating: 3
[8]; [21]
  Plant response rating, Morningglory: 6
[8]; [22]
  Morningglory plant response rating: 7
[9]; [15]
  Redroot pigweed plant response rating: 0
[9]; [16]
  Redroot pigweed plant response rating: 2
[9]; [17]
  Redroot pigweed plant response rating (0 to 10 scale): 6
[9]; [18]
  Redroot pigweed plant response rating: 7
[9]; [19]
  Redroot pigweed plant response rating: 7
[9]; [20]
  Redroot pigweed plant response rating: 0
[9]; [21]
  Plant response rating, Redroot pigweed: 0
[9]; [22]
  Redroot pigweed plant response rating: 2
[10]; [15]
  Rape plant response rating: 0
[10]; [16]
  Rape plant response rating: 0
[10]; [17]
  Rape plant response rating (0 to 10 scale): 0
[10]; [18]
  Rape plant response rating: 0
[10]; [19]
  Rape plant response rating: 8
[10]; [20]
  Rape plant response rating: 0
[10]; [21]
  Plant response rating, Rape: 0
[10]; [22]
  Rape plant response rating: 0
[11]; [15]
  Sugarbeets plant response rating: 0
[11]; [16]
  Sugarbeets plant response rating: 2
[11]; [17]
  Sugarbeets plant response rating (0 to 10 scale): 5
[11]; [18]
  Sugarbeets plant response rating: 6
[11]; [19]
  Sugarbeets plant response rating: 8
[11]; [20]
  Sugarbeets plant response rating: 0
[11]; [21]
  Plant response rating, Sugarbeets: 0
[11]; [22]
  Sugarbeets plant response rating: 2
[12]; [15]
  Wheat plant response rating: 2
[12]; [16]
  Wheat plant response rating: 0
[12]; [17]
  Wheat plant response rating (0 to 10 scale): 0
[12]; [18]
  Wheat plant response rating: 2
[12]; [19]
  Wheat plant response rating: 4
[12]; [20]
  Wheat plant response rating: 0
[12]; [21]
  Plant response rating, Wheat: 2
[12]; [22]
  Wheat plant response rating: 6
[13]; [15]
  Wild oats plant response rating: 2
[13]; [16]
  Wild oats plant response rating: 3
[13]; [17]
  Wild oats plant response rating (0 to 10 scale): 5
[13]; [18]
  Wild oats plant response rating: 8
[13]; [19]
  Wild oats plant response rating: 9
[13]; [20]
  Wild oats plant response rating: 0
[13]; [21]
  Plant response rating, Wild oats: 2
[13]; [22]
  Wild oats plant response rating: 3
[14]; [15]
  Nutsedge plant response rating: 2
[14]; [16]
  Nutsedge plant response rating: 0
[14]; [17]
  Nutsedge plant response rating (0 to 10 scale): 0
[14]; [18]
  Nutsedge plant response rating: 0
[14]; [19]
  Nutsedge plant response rating: 9
[14]; [20]
  Nutsedge plant response rating: 0
[14]; [21]
  Plant response rating, Nutsedge: 3
[14]; [22]
  Nutsedge plant response rating: 4
